For the test, the system named is cultured human mast cells (CHMC), IgE-induced degranulation. Kind of test: CHMC low cell density IgE activation: tryptase assay. The class given is cell-based. The following applies: CHMC low cell density. As to the method: Inhibition of degranulation was measured at both low and high cell density by quantifying the release of the granule specific factors tryptase, histamine and hexosaminidase. Inhibition of release and/or synthesis of lipid mediators was assessed by measuring the release of leukotriene LTC4 and inhibition of release and/or synthesis of cytokines was monitored by quantifying TNF-α, IL-6 and IL-13. Tryptase and hexosaminidase were quantified using fluorogenic substrates as described in their respective examples. […] The protocols of the various assays are provided below.
A second phase is performed to convert the expanded CD34-negative progenitor cells into differentiated mucosal mast cells. These mucosal cultured human mast cells (“CHMC”) are derived from CD34+ cells isolated from umbilical cord blood and treated to form a proliferated population of CD34-negative progenitor cells, as described above. […] Also, the cytokine composition of the medium was modified such that it contained SCF (200 ng/mL) and recombinant human IL-6 (200 ng/mL; Peprotech, Catalog No. 200-06 reconstituted to 100 ug/mL in sterile 10 mM acetic acid) (“CM/SCF/IL-6 medium”).
Pellet CHMC cells (980 rpm, 10 min) and resuspend in pre-warmed MT. Add 65 ul of cells to each 96-well plate. Depending on the degranulation activity for each particular CHMC donor, load 1000-1500 cells/well. Mix four times followed by a 1 hr incubation at 37° C. […] Stimulate cells by adding 25 ul of 6× anti-IgE solution to the appropriate plates. Add 25 ul MT to un-stimulated control wells. Mix twice following addition of the anti-IgE. Incubate at 37° C. for 30 minutes. […] Spin plates at 1000 rpm for 10 min to pellet cells. Transfer 25 ul of supernatant to a 96-well black bottom plate and add 100 ul of freshly diluted tryptase substrate solution to each well. Incubate plates at room temperature for 30 min.
In Table 1, all reported values are IC50s (in μM). […] In Table 1, all reported values are IC50s (in μM).

Where [1] appears, read: 3pt, read-out: LD Tryptase, CHMC, IgE, 3pt.
Setting [2] is: 8pt, read-out: LD Tryptase, CHMC, IgE, 8pt.

Where a name gives a salt, the structure may show the parent alone. Read-outs that look alike come from different tables or passages of the source.

As for `CNC(=O)COc1c(C)cc(Nc2ncc(F)c(Nc3ccc4c(c3)OCCO4)n2)cc1C` [Compound 572, N2-[3,5-dimethyl-4-(N-methylamino)carbonylmethyleneoxyphenyl]-N4-(3,4-ethylenedioxyphenyl)-5-fluoro-2,4-pyrimidinediamine], the IC50 under setting [1] is under 10 µM and the IC50 under setting [2] is under 10 µM.
In the case of `CNC(=O)COc1c(C)cc(Nc2ncc(F)c(Nc3ccc4c(c3)NC(=O)C(C)(C)O4)n2)cc1C` [Compound 574, N2-[3,5-dimethyl-4-(N-methylamino)carbonylmethyleneoxyphenyl]-N4-(2,2-dimethyl-3-oxo-4H-benz[1,4]oxazin-6-yl)-5-fluoro-2,4-pyrimidinediamine], the IC50 is under 10 µM under setting [1] and under 10 µM under setting [2].
As to `CNC(=O)Cn1ccc2cc(Nc3ncc(F)c(Nc4ccc5c(c4)OCCO5)n3)ccc21` [Compound 655, N4-(3,4-Ethylenedioxyphenyl)-5-fluoro-N2-[1-(N-methylamino)carbonylmethyleneindol-5-yl]-2,4-pyrimidinediamine], the IC50 under setting [2] is under 10 µM.
`COc1cc(Nc2ncc(F)c(Nc3ccc4c(n3)NC(=O)C(C)(C)O4)n2)cc(OC)c1OC.O=S(=O)(O)c1ccc(O)cc1` [Compound 676, N4-(2,2-Dimethyl-3-oxo-4H-5-pyrid[1,4]oxazin-6-yl)-5-fluoro-N2-(3,4,5-trimethoxyphenyl)-2,4-pyrimidinediamine 4-Hydroxybenzenesulfonic Acid Salt]: the IC50 reads like this: under setting [1], under 10 µM; under setting [2], under 10 µM.
As to `COc1cc(Nc2ncc(F)c(Nc3ccc4c(n3)NC(=O)C(C)(C)O4)n2)cc(OC)c1OC.O=S(=O)(O)c1cccnc1` [Compound 678, N4-(2,2-Dimethyl-3-oxo-4H-5-pyrid[1,4]oxazin-6-yl)-5-fluoro-N2-(3,4,5-trimethoxyphenyl)-2,4-pyrimidinediamine 0.5 Pyridine-3-sulfonic Acid Salt], the IC50 was under 10 µM under setting [1] and under 10 µM under setting [2].
`CCc1ccc(S(=O)(=O)O)cc1.COc1cc(Nc2ncc(F)c(Nc3ccc4c(n3)NC(=O)C(C)(C)O4)n2)cc(OC)c1OC` [Compound 679, N4-(2,2-Dimethyl-3-oxo-4H-5-pyrid[1,4]oxazin-6-yl)-5-fluoro-N2-(3,4,5-trimethoxyphenyl)-2,4-pyrimidinediamine p-Ethylbenzenesulfonic Acid Salt]: the IC50 was under 10 µM under setting [1] and under 10 µM under setting [2].
`CNC(=O)Cn1ccc2cc(Nc3ncc(F)c(Nc4ccc5c(n4)NC(=O)C(C)(C)O5)n3)ccc21` [Compound 683, N4-(2,2-Dimethyl-3-oxo-4H-5-pyrid[1,4]oxazin-6-yl)-5-fluoro-N2-[1-(N-methylamino)carbonylmethyleneindol-5-yl]-2,4-pyrimidinediamine]: the IC50 is under 10 µM under setting [1] and under 10 µM under setting [2].
`Cc1cc(Nc2ncc(F)c(Nc3ccc4c(n3)NC(=O)C(C)(C)O4)n2)cc(C)c1Cl` [Compound 684, N2-(4-Chloro-3,5-dimethylphenyl)-N4-(2,2-dimethyl-3-oxo-4H-5-pyrid[1,4]oxazin-6-yl)-5-fluoro-2,4-pyrimidinediamine p-Toluenesulfonic Acid Salt]: the IC50 under setting [1] was under 10 µM.
Regarding `CC1(C)Oc2ccc(Nc3nc(Nc4cc(Cl)c(O)c(Cl)c4)ncc3F)nc2NC1=O` [Compound 686, N4-(2,2-Dimethyl-3-oxo-4H-5-pyrid[1,4]oxazin-6-yl)-N2-(3,5-dichloro-4-hydroxyphenyl)-5-fluoro-2,4-pyrimidinediamine], the IC50 runs as follows: under setting [1], under 10 µM; under setting [2], under 10 µM.
Take `CN1C(=O)C(C)(C)Oc2ccc(Nc3ncc(F)c(Nc4ccc5c(n4)N(C)C(=O)C(C)(C)O5)n3)nc21` [Compound 687, N2,N4-Bis(3-oxo-2,2,4-trimethyl-5-pyrid[1,4]oxazin-6-yl)-5-fluoro-2,4-pyrimidinediamine]: under setting [1], the IC50 was under 10 µM.
Still for that read-out and setting: the same measure for `COC(=O)CN1C(=O)C(C)(C)Oc2ccc(Nc3ccnc(Nc4ccc5c(n4)N(CC(=O)OC)C(=O)C(C)(C)O5)n3)nc21` [Compound 688, N2,N4-Bis(2,2-dimethyl-4-carbomethoxymethyl-3-oxo-5-pyrid[1,4]oxazin-6-yl)-2,4-pyrimidinediamine]: over 10 µM.
Take `COc1cc(Nc2ncc(F)c(Nc3ccc4c(n3)N(C)C(=O)C(C)(C)O4)n2)cc(OC)c1OC` [Compound 689, 5-Fluoro-N4-(3-oxo-2,2,4-trimethyl-5-pyrid[1,4]oxazin-6-yl)-N2-(3,4,5-trimethoxyphenyl)-2,4-pyrimidinediamine]: under setting [2], the IC50 was under 10 µM.
Same read-out and setting: the same measure for `COC(=O)CN1C(=O)C(C)(C)Oc2ccc(Nc3nc(Nc4cc(OC)c(OC)c(OC)c4)ncc3F)nc21` [Compound 690, N4-(2,2-Dimethyl-4-carbomethoxymethyl-3-oxo-5-pyrid[1,4]oxazin-6-yl)-5-fluoro-N2-(3,4,5-trimethoxyphenyl)-2,4-pyrimidinediamine]: under 10 µM.
For `COC(=O)CN1C(=O)C(C)(C)Oc2ccc(N(CC(=O)OC)c3nc(Nc4cc(OC)c(OC)c(OC)c4)ncc3F)nc21` [Compound 691, N4-(2,2-Dimethyl-4-carbomethoxymethyl-3-oxo-5-pyrid[1,4]oxazin-6-yl)-5-fluoro-N4-carbomethoxymethyl-N2-(3,4,5-trimethoxyphenyl)-2,4-pyrimidinediamine], under setting [1], the IC50 was under 10 µM.
For the molecule `COc1cc(Nc2ncc(F)c(Nc3ccc4c(n3)NC(=O)C(C)(C)O4)n2)cc(OC)c1OCCN1CCOCC1` [Compound 692, N2-[3,5-Dimethoxy-4-(2-(N-morpholino)ethyloxo)phenyl]-N4-(2,2-dimethyl-3-oxo-4H-5-pyrid[1,4]oxazin-6-yl)-5-fluoro-2,4-pyrimidinediamine], the IC50 under setting [1] is under 10 µM and the IC50 under setting [2] was under 10 µM.
For the molecule `CC1(C)Oc2ccc(Nc3ncc(F)c(Nc4ccc5c(n4)NC(=O)C(C)(C)O5)n3)nc2NC1=O` [Compound 693, N2,N4-Bis(2,2-dimethyl-3-oxo-4H-5-pyrid[1,4]oxazin-6-yl)-5-fluoro-2,4-pyrimidinediamine], under setting [1], the IC50 was under 10 µM.
Regarding `Cc1nn(C)c2cc(Nc3ncc(F)c(Nc4ccc5c(n4)NC(=O)C(C)(C)O5)n3)ccc12` [Compound 812, N2-(1,3-Dimethylindazol-6-yl)-N4-(2,2-dimethyl-3-oxo-4H-5-pyrid[1,4]oxazin-6-yl)-5-fluoro-2,4-pyrimidinediamine], under setting [2], the IC50 is under 10 µM.
Regarding `Cc1n[nH]c2cc(Nc3ncc(F)c(Nc4ccc5c(n4)NC(=O)C(C)(C)O5)n3)ccc12` [Compound 813, N4-(2,2-Dimethyl-3-oxo-4H-5-pyrid[1,4]oxazin-6-yl)-5-fluoro-N2-(3-methyl-1H-indazol-6-yl)-2,4-pyrimidinediamine], under setting [2], the IC50 was under 10 µM.
Same read-out and setting: for `COCCCn1ncc2cc(Nc3ncc(F)c(Nc4ccc5c(n4)NC(=O)C(C)(C)O5)n3)ccc21` [Compound 814, N4-(2,2-Dimethyl-3-oxo-4H-5-pyrid[1,4]oxazin-6-yl)-5-fluoro-N2-[1-(3-methoxypropyl)indazol-5-yl]-2,4-pyrimidinediamine] the value was under 10 µM; for `CC1(C)Oc2ccc(Nc3nc(Nc4ccc5c(cnn5CCCN5C(=O)c6ccccc6C5=O)c4)ncc3F)cc2NC1=O` [Compound 817, N4-(2,2-Dimethyl-3-oxo-4H-benz[1,4]oxazin-6-yl)-5-fluoro-N2-[1-[3-(N-phthalimidopropyl)]indazol-5-yl]-2,4-pyrimidinediamine], under 10 µM.
On the same count and under the same terms, the same measure for `C[C@@H]1Oc2ccc(Nc3nc(Nc4ccc5c(cnn5CCCN5C(=O)c6ccccc6C5=O)c4)ncc3F)cc2NC1=O` [Compound 818, (S)-5-Fluoro-N4-(2-methyl-3-oxo-2H,4H-benz[1,4]oxazin-6-yl)-N2-[1-[3-(N-phthalimidopropyl)]indazol-5-yl]-2,4-pyrimidinediamine]: under 10 µM.
Turning to `Cn1nc(N)c2cc(Nc3ncc(F)c(Nc4ccc5c(n4)NC(=O)C(C)(C)O5)n3)ccc21` [Compound 837, N2-(3-A mino-1-methylindazol-5-yl)-N4-(2,2-dimethyl-3-oxo-4H-5-pyrid[1,4]oxazin-6-yl)-5-fluoro-2,4-pyrimidinediamine], the IC50 is, setting by setting: under setting [1], under 10 µM; under setting [2], under 10 µM.
Take `CC1(C)Oc2ccc(Nc3nc(Nc4ccc5c(cnn5CCCO)c4)ncc3F)nc2NC1=O` [Compound 838, N4-(2,2-Dimethyl-3-oxo-4H-5-pyrid[1,4]oxazin-6-yl)-5-fluoro-N2-[1-(3-hydroxypropyl)indazol-5-yl]-2,4-pyrimidinediamine]: the IC50 under setting [1] is under 10 µM and the IC50 under setting [2] is under 10 µM.
Regarding `COCCCn1ncc2ccc(Nc3ncc(F)c(Nc4ccc5c(n4)NC(=O)C(C)(C)O5)n3)cc21` [Compound 839, N4-(2,2-Dimethyl-3-oxo-4H-5-pyrid[1,4]oxazin-6-yl)-5-fluoro-N2-[1-(3-methoxypropyl)indazol-6-yl]-2,4-pyrimidinediamine], the IC50 by setting is: under setting [1], under 10 µM; under setting [2], under 10 µM.
